Test results as given in ChEMBL document CHEMBL3044542 (J Agric Food Chem, 2011).

Columns and labels:
Format in all cases: functional
Laodelphax striatellus [1] = assay: Insecticidal activity against Laodelphax striatella (small brown planthopper) assessed as lethality at >1000 ppm
Nephotettix cincticeps [2] = assay: Insecticidal activity against Nephotettix cincticeps (green rice leafhopper) assessed as lethality at >1000 ppm
Laodelphax striatellus [3] = assay: Insecticidal activity against Laodelphax striatella (small brown planthopper) assessed as lethality at 100 to 1000 ppm
Nephotettix cincticeps [4] = assay: Insecticidal activity against Nephotettix cincticeps (green rice leafhopper) assessed as lethality at 100 to 1000 ppm
Nephotettix cincticeps [5] = assay: Insecticidal activity against Nephotettix cincticeps (green rice leafhopper) assessed as lethality at 1 to 10 ppm
Laodelphax striatellus [6] = assay: Insecticidal activity against Laodelphax striatella (small brown planthopper) assessed as lethality at 10 to 100 ppm
Nephotettix cincticeps [7] = assay: Insecticidal activity against Nephotettix cincticeps (green rice leafhopper) assessed as lethality at 10 to 100 ppm
Laodelphax striatellus [8] = assay: Insecticidal activity against Laodelphax striatella (small brown planthopper) assessed as lethality at 0.1 to 1 ppm
Nephotettix cincticeps [9] = assay: Insecticidal activity against Nephotettix cincticeps (green rice leafhopper) assessed as lethality at 0.1 to 1 ppm
Laodelphax striatellus [10] = assay: Insecticidal activity against Laodelphax striatella (small brown planthopper) assessed as lethality at 1 to 10 ppm

## CCC1COCC1CN/C(=N/[N+](=O)[O-])NC (mixture of isomers)
Laodelphax striatellus [1]
  Activity: 70%
Nephotettix cincticeps [2]
  Activity: 70%

## C/C(=N\C#N)N(C)CC1CCOC1 (stereo not given)
Laodelphax striatellus [3]
  Activity: 70%
Nephotettix cincticeps [4]
  Activity: 70%

## O=C(OCCCN1CCN/C1=C\[N+](=O)[O-])c1ccccc1
Laodelphax striatellus [3]
  Activity: 70%
Nephotettix cincticeps [4]
  Activity: 70%

## CN/C(=N\[N+](=O)[O-])NCC1COCC1C (mixture of isomers)
Nephotettix cincticeps [5]
  Activity: 70%
Laodelphax striatellus [6]
  Activity: 70%

## O=C(OCCN1CCN/C1=C\[N+](=O)[O-])c1ccccc1
Laodelphax striatellus [3]
  Activity: 70%
Nephotettix cincticeps [2]
  Activity: 70%

## CN/C(=N\[N+](=O)[O-])NCC1(C)CCOC1 (stereo not given)
Laodelphax striatellus [1]
  Activity: 70%
Nephotettix cincticeps [2]
  Activity: 70%

## N/C(=N\[N+](=O)[O-])NCC1CCOC1 (stereo not given)
Nephotettix cincticeps [4]
  Activity: 70%

## CN(C)/C(=N\[N+](=O)[O-])N(C)CC1CCOC1 (stereo not given)
Nephotettix cincticeps [7]
  Activity: 70%
Laodelphax striatellus [6]
  Activity: 70%

## CN/C(=N/CC1CCOC1)N[N+](=O)[O-] (stereo not given) [DINOTEFURAN]
Laodelphax striatellus [8]
  Activity: 70%
Nephotettix cincticeps [9]
  Activity: 70%

## CC(=O)N(C)/C(=N\[N+](=O)[O-])N(CC1CCOC1)C(C)=O (stereo not given)
Laodelphax striatellus [8]
  Activity: 70%
Nephotettix cincticeps [9]
  Activity: 70%

## CN/C(=C\[N+](=O)[O-])NCC1CCOC1 (stereo not given)
Laodelphax striatellus [8]
  Activity: 70%
Nephotettix cincticeps [9]
  Activity: 70%

## CN/C(=N\[N+](=O)[O-])NCC1COC(C)C1 (mixture of isomers)
Nephotettix cincticeps [5]
  Activity: 70%
Laodelphax striatellus [6]
  Activity: 70%

## CC/C(=C\[N+](=O)[O-])N(C)CC1CCOC1 (stereo not given)
Nephotettix cincticeps [2]
  Activity: 70%

## COCCCN1CCN/C1=C\[N+](=O)[O-]
Laodelphax striatellus [3]
  Activity: 70%
Nephotettix cincticeps [7]
  Activity: 70%

## O=[N+]([O-])/N=C1\NCCN1CC1CCOC1 (stereo not given)
Nephotettix cincticeps [5]
  Activity: 70%
Laodelphax striatellus [6]
  Activity: 70%

## CN(C(=O)c1ccccc1)/C(=N\[N+](=O)[O-])N(CC1CCOC1)C(=O)c1ccccc1 (stereo not given)
Laodelphax striatellus [10]
  Activity: 70%
Nephotettix cincticeps [9]
  Activity: 70%

## O=[N+]([O-])/N=C1\NCCN1Cc1ccc(Cl)nc1 [IMIDACLOPRID]
Laodelphax striatellus [8]
  Activity: 70%
Nephotettix cincticeps [9]
  Activity: 70%

## CN/C(=N\[N+](=O)[O-])N(C)CC1CCOC1 (stereo not given)
Laodelphax striatellus [10]
  Activity: 70%
Nephotettix cincticeps [5]
  Activity: 70%

## CCN(CC1CCOC1)/C(=C/[N+](=O)[O-])NC (stereo not given)
Nephotettix cincticeps [5]
  Activity: 70%
Laodelphax striatellus [6]
  Activity: 70%

## CC(=O)OCCCN1CCN/C1=C\[N+](=O)[O-]
Laodelphax striatellus [3]
  Activity: 70%
Nephotettix cincticeps [4]
  Activity: 70%

## O=[N+]([O-])/N=C1\NCCN1CCC1CCCCO1 (stereo not given)
Laodelphax striatellus [3]
  Activity: 70%
Nephotettix cincticeps [4]
  Activity: 70%

## CN1COCN(CC2CCOC2)/C1=N/[N+](=O)[O-] (stereo not given)
Laodelphax striatellus [3]
  Activity: 70%
Nephotettix cincticeps [4]
  Activity: 70%

## CC(=O)OCCN1CCN/C1=C\[N+](=O)[O-]
Laodelphax striatellus [3]
  Activity: 70%
Nephotettix cincticeps [2]
  Activity: 70%

## O=[N+]([O-])/N=C1\NCCN1CCC1CCCO1 (stereo not given)
Laodelphax striatellus [3]
  Activity: 70%
Nephotettix cincticeps [4]
  Activity: 70%

## N#C/N=C1\SCCCN1CC1CCOC1 (stereo not given)
Nephotettix cincticeps [7]
  Activity: 70%
Laodelphax striatellus [6]
  Activity: 70%

## CN/C(=C\[N+](=O)[O-])CCC1CCOC1 (stereo not given)
Nephotettix cincticeps [2]
  Activity: 70%

## CCN/C(=N\[N+](=O)[O-])NCC1CCOC1 (stereo not given)
Laodelphax striatellus [3]
  Activity: 70%
Nephotettix cincticeps [7]
  Activity: 70%

## CN/C(=N\[N+](=O)[O-])NCC1CCCOC1 (stereo not given)
Laodelphax striatellus [3]
  Activity: 70%
Nephotettix cincticeps [7]
  Activity: 70%

## CN/C(=N\[N+](=O)[O-])NCC1CCOC1C (mixture of isomers)
Laodelphax striatellus [1]
  Activity: 70%
Nephotettix cincticeps [2]
  Activity: 70%

## COCCN1CCN/C1=C\[N+](=O)[O-]
Laodelphax striatellus [3]
  Activity: 70%
Nephotettix cincticeps [7]
  Activity: 70%

## O=[N+]([O-])/C=C1\NCCN1CCCO
Laodelphax striatellus [3]
  Activity: 70%
Nephotettix cincticeps [4]
  Activity: 70%

## O=[N+]([O-])/N=C1\NCCN1Cc1ccoc1
Nephotettix cincticeps [7]
  Activity: 70%
Laodelphax striatellus [6]
  Activity: 70%

## O=[N+]([O-])/C=C1\NCCN1CCO
Laodelphax striatellus [3]
  Activity: 70%
Nephotettix cincticeps [2]
  Activity: 70%

## CN/C(=N\[N+](=O)[O-])NCC1CC2CCC1O2 (mixture of isomers)
Laodelphax striatellus [1]
  Activity: 70%
Nephotettix cincticeps [2]
  Activity: 70%
